In patent US12377104B1, “Methods for treating a fatty liver disease” (Madrigal Pharmaceuticals, Inc., priority 2024, dated 2025):

System: NASH patients
Assay: MAESTRO-NASH: efficacy by baseline body weight and BMI
Assay type: in vivo, human
Conditions: for ≥30% Reduction in MRI-PDFF at Week 52, Assessment (%) / ≥120% Increase in SHBG at Week 52, Assessment (%): post hoc
Protocol: In the MAESTRO-NASH study, randomization to 80 mg and 100 mg doses was equal across all body weights. Analyses were conducted to provide additional evidence of a relationship between resmetirom dose, baseline body weight and body mass index (BMI), and safety/efficacy readouts. […] The only variable that determined exposure to resmetirom in the NASH population was body weight. […] Study median body weight was 100 kg. […] et al. (2024). CAP was stable over time, both doses showing a similar durable response (FIG. 30B).

[1] = Week 52 Paired Biopsies, 80 mg, >100 kg
[2] = Week 52 Paired Biopsies, 80 mg, ≤100 kg
[3] = Week 52 Paired Biopsies, 100 mg, >100 kg
[4] = Week 52 Paired Biopsies, 100 mg, ≤100 kg
[5] = Week 52 Primary Population, 80 mg, >100 kg
[6] = Week 52 Primary Population, 80 mg, ≤100 kg
[7] = Week 52 Primary Population, 100 mg, >100 kg
[8] = Week 52 Primary Population, 100 mg, ≤100 kg

## CC(C)c1cc(Oc2c(Cl)cc(-n3nc(C#N)c(=O)[nH]c3=O)cc2Cl)n[nH]c1=O [Resmetirom, 2-(3,5-dichloro-4-((5-isopropyl-6-oxo-1,6-dihydropyridazin-3-yl)oxy)phenyl)-3,5-dioxo-2,3,4,5-tetrahydro-1,2,4-triazine-6-carbonitrile]
100 mg, 80-<90 kg
  Week 52 Paired Biopsies Consensus NASH Resolution Responder: number: 16
  Week 52 Paired Biopsies Consensus NASH Resolution Responder: percentage (in parentheses): (39.0)
  ≥30% reduction in MRI-PDFF at Week 52: number of patients: 30
  ≥30% reduction in MRI-PDFF at Week 52: percentage of patients (in parentheses): (76.9)
  ≥120% increase in SHBG at Week 52: number of patients: 27
  ≥120% increase in SHBG at Week 52: percentage of patients (in parentheses): (62.8)
100 mg, 90-<100 kg
  Discontinued Study Prior to Week 52: number: 15
  Discontinued Study Prior to Week 52: percentage (in parentheses): (25.4)
  Week 52 MITT Consensus Fibrosis Improvement Responder: number: 12
  Week 52 MITT Consensus Fibrosis Improvement Responder: percentage (in parentheses): (20.3)
  Week 52 MITT Consensus NASH Resolution Responder: number: 13
  Week 52 MITT Consensus NASH Resolution Responder: percentage (in parentheses): (22.0)
  Week 52 Paired Biopsies Consensus Fibrosis Improvement Responder: number: 12
  Week 52 Paired Biopsies Consensus Fibrosis Improvement Responder: percentage (in parentheses): (29.3)
  Week 52 Paired Biopsies Consensus NASH Resolution Responder: number: 13
  Week 52 Paired Biopsies Consensus NASH Resolution Responder: percentage (in parentheses): (31.7)
  ≥30% reduction in MRI-PDFF at Week 52: number of patients: 24
  ≥30% reduction in MRI-PDFF at Week 52: percentage of patients (in parentheses): (70.6)
  ≥120% increase in SHBG at Week 52: number of patients: 28
  ≥120% increase in SHBG at Week 52: percentage of patients (in parentheses): (63.6)
100 mg, 100-<110 kg
  Discontinued Study Prior to Week 52: number: 9
  Discontinued Study Prior to Week 52: percentage (in parentheses): (17.6)
  Week 52 MITT Consensus Fibrosis Improvement Responder: number: 14
  Week 52 MITT Consensus Fibrosis Improvement Responder: percentage (in parentheses): (27.5)
  Week 52 MITT Consensus NASH Resolution Responder: number: 16
  Week 52 MITT Consensus NASH Resolution Responder: percentage (in parentheses): (31.4)
  Week 52 Paired Biopsies Consensus Fibrosis Improvement Responder: number: 14
  Week 52 Paired Biopsies Consensus Fibrosis Improvement Responder: percentage (in parentheses): (35.0)
  Week 52 Paired Biopsies Consensus NASH Resolution Responder: number: 16
  Week 52 Paired Biopsies Consensus NASH Resolution Responder: percentage (in parentheses): (40.0)
  ≥30% reduction in MRI-PDFF at Week 52: number of patients: 29
  ≥30% reduction in MRI-PDFF at Week 52: percentage of patients (in parentheses): (70.7)
  ≥120% increase in SHBG at Week 52: number of patients: 27
  ≥120% increase in SHBG at Week 52: percentage of patients (in parentheses): (62.8)
100 mg, <80 kg
  Discontinued Study Prior to Week 52: number: 12
  Discontinued Study Prior to Week 52: percentage (in parentheses): (21.4)
  Week 52 MITT Consensus Fibrosis Improvement Responder: number: 16
  Week 52 MITT Consensus Fibrosis Improvement Responder: percentage (in parentheses): (28.6)
  Week 52 MITT Consensus NASH Resolution Responder: number: 14
  Week 52 MITT Consensus NASH Resolution Responder: percentage (in parentheses): (25.0)
  Week 52 Paired Biopsies Consensus Fibrosis Improvement Responder: number: 16
  Week 52 Paired Biopsies Consensus Fibrosis Improvement Responder: percentage (in parentheses): (40.0)
  Week 52 Paired Biopsies Consensus NASH Resolution Responder: number: 14
  Week 52 Paired Biopsies Consensus NASH Resolution Responder: percentage (in parentheses): (35.0)
  ≥30% reduction in MRI-PDFF at Week 52: number of patients: 24
  ≥30% reduction in MRI-PDFF at Week 52: percentage of patients (in parentheses): (64.9)
  ≥120% increase in SHBG at Week 52: number of patients: 30
  ≥120% increase in SHBG at Week 52: percentage of patients (in parentheses): (68.2)
100 mg, body weight >100 kg
  ≥30% Reduction in MRI-PDFF at Week 52, Assessment (%): 72.5%
  ≥120% Increase in SHBG at Week 52, Assessment (%): 55.0%
100 mg, body weight ≤100 kg
  ≥30% Reduction in MRI-PDFF at Week 52, Assessment (%): 71.7%
  ≥120% Increase in SHBG at Week 52, Assessment (%): 64.2%
100 mg, ≥110 kg
  Discontinued Study Prior to Week 52: number: 18
  Discontinued Study Prior to Week 52: percentage (in parentheses): (16.7)
  Week 52 MITT Consensus Fibrosis Improvement Responder: number: 27
  Week 52 MITT Consensus Fibrosis Improvement Responder: percentage (in parentheses): (25.0)
  Week 52 MITT Consensus NASH Resolution Responder: number: 30
  Week 52 MITT Consensus NASH Resolution Responder: percentage (in parentheses): (27.8)
  Week 52 Paired Biopsies Consensus Fibrosis Improvement Responder: number: 27
  Week 52 Paired Biopsies Consensus Fibrosis Improvement Responder: percentage (in parentheses): (31.4)
  Week 52 Paired Biopsies Consensus NASH Resolution Responder: number: 30
  Week 52 Paired Biopsies Consensus NASH Resolution Responder: percentage (in parentheses): (34.9)
  ≥30% reduction in MRI-PDFF at Week 52: number of patients: 53
  ≥30% reduction in MRI-PDFF at Week 52: percentage of patients (in parentheses): (74.6)
  ≥120% increase in SHBG at Week 52: number of patients: 45
  ≥120% increase in SHBG at Week 52: percentage of patients (in parentheses): (50.6)
VCTE responder analyses at 1-3 years
  patients with worsening of VCTE: less than 10%
[1]
  Consensus Fibrosis Improvement, Assessment (%): 22.5%
  Consensus NASH Resolution, Assessment (%): 27.0%
[2]
  Consensus Fibrosis Improvement, Assessment (%): 35.4%
  Consensus NASH Resolution, Assessment (%): 32.0%
[3]
  Consensus Fibrosis Improvement, Assessment (%): 32.5%
  Consensus NASH Resolution, Assessment (%): 35.8%
[4]
  Consensus Fibrosis Improvement, Assessment (%): 33.6%
  Consensus NASH Resolution, Assessment (%): 36.0%
[5]
  Consensus Fibrosis Improvement, Assessment (%): 17.4%
  Consensus NASH Resolution, Assessment (%): 20.8%
[6]
  Consensus Fibrosis Improvement, Assessment (%): 29.2%
  Consensus NASH Resolution, Assessment (%): 26.4%
[7]
  Consensus Fibrosis Improvement, Assessment (%): 25.6%
  Consensus NASH Resolution, Assessment (%): 28.2%
[8]
  Consensus Fibrosis Improvement, Assessment (%): 25.1%
  Consensus NASH Resolution, Assessment (%): 26.9%
